Test results as given in patent US6313177A, “D-mannitol derivatives as HIV aspartyl protease inhibitors” (Pharmacor Inc., priority 1999, dated 2001).
Where two headings read alike, the source gives them in different places.

Columns and labels:
[1] = target: T1, recombinant HIV-1 protease (Human immunodeficiency virus type 1 group M subtype B, UniProt P04585); test: Fluorometric (FRET) enzymatic assay for the inhibition constant (Ki) against the HIV protease; format: biochemical
T1 construct: recombinant HIV-1 protease; purchased Bachem Bioscience
Text: Enzymatic Assay for Determining the Inhibition Constant (Ki) of Synthetic Compounds Prepared Against the HIV Protease
This is a fluorometric assay based on the cleavage by protease of a substrate carrying a donor group (EDANS, excitation at 340 nm and emission at 490 nm) and an acceptor group (DABCYL) on each side of the cleavage site, interacting together through fluorescence resonance energy transfer (FRET). Cleavage of the substrate by protease stops energy exchange between the two groups, resulting in a time-dependent increase in fluorescence intensity that is linearly related to the extent of substrate hydrolysis.
The enzymatic assay is done at 30° C. in a spectrophotometer microcuvet, in a total volume of 400 μL. The apparatus used for readings is a UV-visible Cary 1 spectrophotometer made by Varian. The reaction is run first in the absence of protease inhibitors for 2 min, using 355 μL of buffer at pH 4.7 (sodium acetate 100 mM, NaCl 1 M, EDTA 1 mM, DTT 1 mM, dimethylsulfoxide 10%, and BSA 1 mg/mL), 40 μL of substrate H-2930 from Molecular Probes (final concentration 10 μM) and 5 μL of recombinant HIV-1 protease (final concentration 18.3 nM) purchased from Bachem Bioscience. Fluorescence readings at […] are taken continuously during the reaction, allowing determination of the enzyme's initial velocity (v0). At the end of the 2 min incubation, the potential inhibitor at a defined concentration in a volume of 2 μL is added to the reaction, and fluorescence readings are taken for another 2 min, allowing determination of enzyme velocity (vi) in the presence of the inhibitory compound. Several concentrations of the putative inhibitors are tested in the assay. After calculation of vo and vi, the inhibition constant (Ki) of the compound is determined using the equation of Henderson: [formula]
and [I]=inhibitor concentration, [S ]=substrate concentration, Km=Michaelis-Menten constant, Kiapp =apparent Ki
Note that the Michaelis-Menten constant of HIV protease is determined by running the assay without inhibitors, using several concentrations of substrate, and plotting the results as a Cornish-Bowden graph with the ratio substrate concentration/velocity as the ordinate and substrate concentration as the abscissa.

[2] = Cytotoxicity (MTT assay / trypan blue exclusion test); format: cell-based; settings: 7 or 10 days, 37° C., measure (IC50/CC50) not stated
Experimental: Two assays were performed to evaluate the potentiel toxicity of the compounds in infected cells:
1) Briefly, cells were grown in 96-well microtiter plates at 37° C. in complete culture medium in the presence of the compound to test. Control cells grown in the absence of the compound received the same amount of solvent used to dissolve the inhibitor (in this case, dimethylsulfoxide at a final concentration of 0.1 to 0.3%). After 7 or 10 days, MTT was added to the cultures for 4 hours at 37° C. as described in the literature (Schwartz et al., AIDS Res. Hum. Retrov. 4: 441-448, 1988; Mosmaun, J. Immunol. Meth., 65: 55-63, 1983) and the changes in absorbance associated with metabolism of MTT by viable cells was monitored with an ELISA microplate reader at a test wavelength of 540 nm.
2) The cells were grown as described above in 24-well microplates or 25-cm tissue culture flasks in the presence or absence of the tested compounds, and the cell viability after 7 or 10 days was determined by the trypan blue exclusion test, using a hemacytometer and a microscope at 100× magnification.

[3] = Table 1, benzylated D-mannitol derivatives, pH 4.7, 30° C., substrate 10 μM, protease 18.3 nM

| Ki [1, 3] | Structure (SMILES) | further results |
| --- | --- | --- |
|  | O[C@@H]([C@H](O)[C@@H](COCc1ccccc1)OCc1ccccc1)[C@@H](COCc1ccccc1)OCc1ccccc1 [Compound 1, 1,2,5,6-tetra-O-benzyl-D-mannitol] | Ki [1]: 2 µM; CC50 [2]: 15 µM |
|  | C=CCOC[C@@H](OCc1ccccc1)[C@@H](O)[C@H](O)[C@@H](COCC=C)OCc1ccccc1 [Compound 90, 1,6-di-O-allyl-2,5-di-O-benzyl-D-mannitol] | Ki ([1]; Table 2, tetra-substituted D-mannitol derivatives, pH 4.7, 30° C., substrate 10 μM, protease 18.3 nM): 12 µM |
| 3 µM | Cc1ccc(COC[C@@H](OCc2ccccc2)[C@@H](O)[C@H](O)[C@@H](COCc2ccc(C)cc2)OCc2ccccc2)cc1 [Compound 26, 1,6-di-O-(4-methylbenzyl)-2,5-di-O-benzyl-D-mannitol] |  |
| > 5 µM | O[C@@H]([C@H](O)[C@@H](COCc1ccccc1)OCc1c(F)c(F)c(F)c(F)c1F)[C@@H](COCc1ccccc1)OCc1c(F)c(F)c(F)c(F)c1F [Compound 15, 1,6-di-O-benzyl-2,5-di-O-(pentafluorobenzyl)-D-mannitol] |  |
|  | O[C@@H]([C@H](O)[C@@H](COCc1ccccc1)OCc1ccccc1F)[C@@H](COCc1ccccc1)OCc1ccccc1F [Compound 21, 1,6-di-O-benzyl-2,5-di-O-(2-fluorobenzyl)-D-mannitol] | Ki [1]: 3.7 µM |
| > 1 µM | Cc1ccc(COC[C@@H](OCc2ccc(C)cc2)[C@@H](O)[C@H](O)[C@@H](COCc2ccc(C)cc2)OCc2ccc(C)cc2)cc1 [Compound 50, 1,2,5,6-tetra-O-(4-methylbenzyl)-D-mannitol] |  |
| 10 µM | O[C@@H]([C@H](O)[C@@H](COCc1ccccc1)OCc1ccc(C(F)(F)F)cc1)[C@@H](COCc1ccccc1)OCc1ccc(C(F)(F)F)cc1 [Compound 22, 1,6-di-O-benzyl-2,5-di-O-(4-trifluoromethylbenzyl)-D-mannitol] |  |

| Structure (SMILES) | Ki [1, 3] | further results |
| --- | --- | --- |
| CC(C)COC(=O)c1ccc(COC[C@@H](OCc2ccccc2)[C@@H](O)[C@H](O)[C@@H](COCc2ccc(C(=O)OCC(C)C)cc2)OCc2ccccc2)cc1 [Compound 30, 1,6-di-O-(4-carboisobutoxybenzyl)-2,5-di-O-benzyl D-mannitol] | > 3 µM |  |
